Experimental data: US7612077B2, “Crystalline forms of the anti-cancer compound ZD1839” (Astrazeneca AB, priority 2002, dated 2009)

Experiments:
[1] = stability of the crystalline physical form; assay type: physicochemical; conditions: solid crystalline form
[2] = stability in the presence of water / as aqueous suspension; assay type: physicochemical
Experimental: Form 5 ZD1839 trihydrate is a stable form of the compound of Formula I In particular, Form 5 ZD1839 trihydrate is very stable in the presence of water. For example, when Form 5 ZD1839 trihydrate is prepared as an aqueous suspension the resulting suspension is stable, whereas aqueous suspensions prepared using other forms of the compound of Formula I are prone to convert to Form 5 ZD1839 trihydrate during storage. In the case of aqueous suspensions of the compound of Formula I this can be problematic because the conversion of a less thermodynamically stable form to the Form 5 ZD1839 trihydrate can result in the growth of large crystals of the Form 5 ZD1839 trihydrate, thereby altering the particle size distribution in the suspension. […] Furthermore, if a variable mixture of two such forms of the compound of Formula I were to be present, the dissolution rate and bioavailability of the active compound(s) could be variable as a result of the different characteristics of the two forms.

| SMILES | stability of crystalline physical form [1] | stability in the presence of water ([2]; in the presence of water) | stability of aqueous suspension ([2]; prepared as an aqueous suspension, during storage) |
| --- | --- | --- | --- |
| COc1cc2ncnc(Nc3ccc(F)c(Cl)c3)c2cc1OCCCN1CCOCC1 [Form 3 ZD1839 DMSO solvate, 4-(3′-chloro-4′-fluoroanilino)-7-methoxy-6-(3-morpholinopropoxy)quinazoline mono-solvate with dimethyl sulphoxide] | very stable | – | – |
| COc1cc2ncnc(Nc3ccc(F)c(Cl)c3)c2cc1OCCCN1CCOCC1 [Form 5 ZD1839 trihydrate, 4-(3′-chloro-4′-fluoroanilino)-7-methoxy-6-(3-morpholinopropoxy)quinazoline trihydrate] | – | very stable | stable |
| COc1cc2ncnc(Nc3ccc(F)c(Cl)c3)c2cc1OCCCN1CCOCC1 [Form 1 ZD1839 polymorph, 4-(3′-chloro-4′-fluoroanilino)-7-methoxy-6-(3-morpholinopropoxy)quinazoline] | highly stable | – | – |
| COc1cc2ncnc(Nc3ccc(F)c(Cl)c3)c2cc1OCCCN1CCOCC1 [Form 2 ZD1839 MeOH solvate, 4-(3′-chloro-4′-fluoroanilino)-7-methoxy-6-(3-morpholinopropoxy)quinazoline hemi-methanolate] | of sufficient stability | – | – |
